One test relates to MRSA. The experiment in a line: Coated titanium bone plugs in broth challenged with MRSA (planktonic, FIG. 4). In kind it is cell-based, methicillin-resistant Staphylococcus aureus. The settings on record: for viable bacteria per tube: 4 and 8 hour time points, challenge ~5×10^8 CFU MRSA; for viable bacteria: 24 hour time point. On the procedure:
To confirm that medical devices coated with the ceragenin-containing composites described herein are able to kill bacteria, various groups of titanium bone plugs were prepared. The titanium bone plugs were either uncoated, coated with MED-6607 ceragenin-containing silicone polymer prepared as described above, or with MED-6607 silicone polymer only. In the groups of bone plugs that were coated with ceragenin-containing silicone polymer, the silicone either contained 16 wt %, 18 wt %, or 20 wt % ceragenin. Specifically, the groups of bone plugs were as follows: • 0%—a titanium bone plug coated with silicone polymer with no ceragenin • 16%—a titanium bone plug coated with silicone polymer containing 16% CSA-13 (w/w) • 18%—a titanium bone plug coated with silicone polymer containing 18% CSA-13 (w/w) • […] • titanium—a titanium bone plug with no coating
The bone plugs were placed into broth (e.g., 30 ml of broth) and challenged with ˜5×10^8 colony forming units (CFU) of MRSA. In addition, a broth/MRSA-only control was prepared. Samples were withdrawn from each of the tubes at 0, 1, 2, 4, 8, 24, and 48 hours. The data for the 0, 1, 2, 4, 8, and 24 hour data points are graphed in FIG. 4.
In contrast, the 16% tubes each contained about 1×10^3 CFU and the 20% tubes each contained about 5×10^2 CFU.

For another test, the system named is biofilms. The experiment in a line: Coated bone plates implanted into animals and challenged with biofilms. In kind it is in vivo, sheep. The settings on record: CSA-13 coated stainless steel plates. An excerpt: Similar results were obtained in vivo when bone plates were coated with ceragenin-containing composites and were compared with bone plates coated with polymer only, then implanted into animals and challenged with biofilms. […] In contrast, 100% of animals who received polymer-only bone plates developed infection when they were infected with biofilms and bacterial loads in and around the infection site exceeded 10^6 bacterial cells per gram of tissue, which is well above the standard for infection.
In addition, histological sections were compared from animals receiving bone plates. […] Two sheep in Group 1 were euthanized after one week due to the severity of their infections. […] And while inflammation was present in sheep from all groups, with the highest level of inflammation being present in Group 1 sheep, this is a normal response to surgical trauma.

The values that follow come from patent US8932614B2, “Incorporation of particulate ceragenins in polymers” (priority 2011, dated 2015).

Regarding `CCCCCCCCNCCC[C@@H](C)[C@H]1CC[C@H]2[C@@H]3[C@H](OCCCN)C[C@@H]4C[C@H](OCCCN)CC[C@]4(C)[C@H]3C[C@H](OCCCN)[C@]12C` [CSA-13], the “viable bacteria per tube” value in the test with MRSA (bone plug coated with silicone containing 16% CSA-13 (w/w)) was “about 1×10^3 CFU”; in the test with MRSA (bone plug coated with silicone containing 18% CSA-13 (w/w)), “essentially no viable bacterial”; with MRSA (bone plug coated with silicone containing 20% CSA-13 (w/w)) it was “about 5×10^2 CFU”. The viable bacteria entry in the test with MRSA (bone plug coated with silicone containing 16% CSA-13) is listed as “considerable numbers of viable bacteria”; with MRSA (bone plug coated with silicone containing 20% CSA-13, compared with 18%), “caught up to the 18”. Besides, the “numbers of viable bacteria (CFU/ml) over time” value in the test on MRSA (tubes containing a bone plug with CSA-13 (16%, 18% and 20%), 0-24 h) was “dropped dramatically”. Further, the “sheep showing signs of osteomyelitis (histology)” value with biofilms (Group 2 (n=9): biofilm) and in the test on biofilms (Group 4 (n=8): no biofilm) was “none” in each case.
